Measurements taken from PubChem BioAssay AID1919000 (Molecular Pharmacology Branch, DTP, NCI, 2023).

Test system: 653999-131-R-J2-PDC complex spheroids, growth % test/control
Assay: Anticancer human tumor 653999-131-R-J2-PDC patient-derived lung adenocarcinoma cell line growth inhibition [AhR]
Details: for IC50: curve of first compound; for viability, T/C: stronger effect = lower value
Text: Multicellular complex tumor spheroid response to aryl hydrocarbon receptor antagonists in combination with a variety of drugs and investigational agents in selected tumor cell lines
The current study was undertaken to assess response to aryl hydrocarbon receptor antagonists in combination with standard-of-care drugs and investigational agents in solid tumor complex spheroid models. Complex spheroids include a stromal component modeled by human endothelial cells (HUVEC) and fibroblasts modeled by human mesenchymal stem cells (MSCs). The concentration ranges selected for each drug and investigational agent were based upon clinically achievable concentrations if the clinical Cmax of the agent was known.
Compounds. The drugs and investigational agents: BAY 2416964 (NSC825713), GNF351 (NSC835774), CH-223191 (NSC835775), CPI-455 (NSC825282), aza-TdCyd (NSC777586), decitabine (NSC127716), belinostat (NSC758774), entinostat (NSC756642), pevonedistat (NSC761192), tazemetostat (NSC777109), talazoparib (NSC765396), olaparib (NSC753686), selinexor (NSC780203), nedisertib (M3814, NSC802822), bortezomib (NSC756655), venetoclax (NSC766270), doxorubicin (NSC123127), elimusertib (BAY189344, NSC800525), ceralasertib (AZD6738, NSC777638), TAK-243 (NSC785004), alisertib (NSC759677), etoposide (NSC141540), topotecan (NSC609699), eribulin (NSC707389), gemcitabine (NSC613327), carboplatin (NSC241240), cisplatin (NSC119875), and SN-38 (NSC673596) were obtained from the National Cancer Institute (NCI) Developmental Therapeutics Program Chemical Repository (32). The FDA-approved anticancer drug set is available from the Developmental Therapeutics Program at https://dtp.cancer.gov/organization/dscb/obtaining/available plates.htm. […] The stock solutions were prepared in dimethyl sulfoxide (DMSO, Sigma-Aldrich, St. Louis, MO, cat. D2650), except for the platinum compounds which were prepared in saline (Quality Biological, Gaithersburg, MD, cat. 114-055-101), at 800-fold the tested concentration and stored at -70 degrees C prior to their use. All drugs and investigational agents were tested over a range starting from a high concentration at or near the clinical Cmax and decreasing in half-log increments. If the clinical Cmax for an agent had not been determined, the highest concentration tested was 10 microM (Table 1).
Cell Culture. All cells were maintained in an incubator at 37 degrees C and 5% CO2 with 95% humidity. The PDC lines were cultured according to standard operating procedures established by the NCI PDMR (https://pdmr.cancer.gov). Briefly, all PDCs were thawed and cultured in Matrigel-coated flasks prepared with a working solution of 1X Ham's F-12 nutrient mix, without supplementation (Invitrogen, Waltham, MA, cat. 11765054), 100 U/mL penicillin-streptomycin (Invitrogen, cat. 15140122), and 2.5% Matrigel (Corning Inc., Corning, NY, cat. 354248) for the first three passages. All PDCs were cultured in complete DMEM/F-12 media containing advanced DMEM/F-12 (Invitrogen, cat. 12634028), 4.9% defined fetal bovine serum, heat inactivated (HyClone Laboratories Inc., Logan, UT, cat. SH30070.03HI), 389 ng/mL hydrocortisone (Sigma-Aldrich, cat. H4001), 9.7 ng/mL human EGF recombinant protein (Invitrogen, cat. PHG0313), 23.4 microg/mL adenine (Sigma-Aldrich, cat. A2786), 97.3 U/mL penicillin-streptomycin (Invitrogen, cat. 15140122), 1.9 mM L-glutamine (Invitrogen, cat. 25030081), and 9.7 microM Y-27632 dihydrochloride (Tocris Bioscience, Bristol, United Kingdom, cat. 1254). The PDCs were cultured in complete DMEM/F12 media without 10 microM Y-27632 dihydrochloride for at least two passages prior to the screen. The established cell lines NCI-H1341 and […] were cultured in DMEM/F-12, HEPES (Invitrogen, cat. 11330032), 5% defined fetal bovine serum (HyClone Laboratories Inc., cat. SH30070.03), ITS premix universal culture supplement [insulin (5 microg/mL), transferrin (5 microg/mL), and selenious acid (5 ng/mL)] […]
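Further: spheroids exposed to agents for seven days.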

SMILES: Nc1ncn(C2CC(O)C(CO)S2)c(=O)n1 (stereo not given) + CC(CO)NC(=O)c1cc(-c2ccc(Cl)cc2)nn(-c2cnn(C)c2)c1=O
- IC50 (second compound 0.1 µM): > 300 nM
- IC50 (second compound 0.316 µM): > 300 nM
- IC50 (second compound 1 µM): > 300 nM
- IC50 (second compound 3.16 µM): > 300 nM
- IC50 (second compound 10 µM): > 300 nM
- viability, T/C (second compound 0.1 µM, first compound 0.000949 µM): 101%
- viability, T/C (second compound 0.1 µM, first compound 0.003 µM): 117%
- viability, T/C (second compound 0.1 µM, first compound 0.00949 µM): 111%
- viability, T/C (second compound 0.1 µM, first compound 0.03 µM): 103%
- viability, T/C (second compound 0.1 µM, first compound 0.0949 µM): 97.3%
- viability, T/C (second compound 0.1 µM, first compound 0.3 µM): 84.8%
- viability, T/C (second compound 0.316 µM, first compound 0.000949 µM): 106%
- viability, T/C (second compound 0.316 µM, first compound 0.003 µM): 121%
- viability, T/C (second compound 0.316 µM, first compound 0.00949 µM): 134%
- viability, T/C (second compound 0.316 µM, first compound 0.03 µM): 100%
- viability, T/C (second compound 0.316 µM, first compound 0.0949 µM): 104%
- viability, T/C (second compound 0.316 µM, first compound 0.3 µM): 88.1%
- viability, T/C (second compound 1 µM, first compound 0.000949 µM): 119%
- viability, T/C (second compound 1 µM, first compound 0.003 µM): 115%
- viability, T/C (second compound 1 µM, first compound 0.00949 µM): 110%
- viability, T/C (second compound 1 µM, first compound 0.03 µM): 103%
- viability, T/C (second compound 1 µM, first compound 0.0949 µM): 110%
- viability, T/C (second compound 1 µM, first compound 0.3 µM): 84%
- viability, T/C (second compound 3.16 µM, first compound 0.000949 µM): 121%
- viability, T/C (second compound 3.16 µM, first compound 0.003 µM): 101%
- viability, T/C (second compound 3.16 µM, first compound 0.00949 µM): 104%
- viability, T/C (second compound 3.16 µM, first compound 0.03 µM): 121%
- viability, T/C (second compound 3.16 µM, first compound 0.0949 µM): 101%
- viability, T/C (second compound 3.16 µM, first compound 0.3 µM): 96.4%
- viability, T/C (second compound 10 µM, first compound 0.000949 µM): 117%
- viability, T/C (second compound 10 µM, first compound 0.003 µM): 120%
- viability, T/C (second compound 10 µM, first compound 0.00949 µM): 127%
- viability, T/C (second compound 10 µM, first compound 0.03 µM): 127%
- viability, T/C (second compound 10 µM, first compound 0.0949 µM): 116%
- viability, T/C (second compound 10 µM, first compound 0.3 µM): 103%
